# Measured values from patent US11555047B2, “One-step synthesis of phosphate-based inhibitors and applications thereof” (UNIVERSITY OF SOUTH CAROLINA, priority 2019, dated 2023).
# Where two headings read alike, the source gives them in different places.
# Key:
# [1] = target: T1, TcRPI-B (Trypanosoma cruzi, UniProt A0ACM8Q8A9); conditions: known TcRPI-B inhibitors, FIG. 2; cited from earlier work
# [2] = system: TcRPE-1; assay: TcRPE-1 coupled enzyme assay (same reaction mixture, without TcRPI-B, 4 mM Ru5P); type: biochemical, Trypanosoma cruzi; conditions: mean of three determinations ± SD
# Experimental: (§1) The activity of TcRPI-B was determined by a coupled enzyme assay following consumption of NADH at 340 nm, at 30° C., in a Beckman Coulter DU®600 Spectrophotometer, using a mixture containing 50 mM triethanolamine (pH 7.5), 5 mM MgCl2, […], 0.025 mM thiamine pyrophosphate, 1 unit of transketolase (EC 2.2.1.1), 1 unit of ribulose 5-phosphate 3-epimerase (EC 5.1.3.1), 20 units of triosephosphate isomerase (EC 5.3.1.1), 2 units of α-glycerophosphate dehydrogenase (EC 1.1.1.8), and 2 mM R5P for the screening of the inhibitors. For the determination of Ki, the concentration of R5P was 0.4 mM, 0.8 mM, and 2.0 mM.
# (§2) The activity of TcRPE-1 was determined in the same reaction mixture, without TcRPI-B, and replacing R5P by 4 mM ribulose 5-phosphate (Ru5P). […] The reaction was started with the addition of TcRPI-B and further incubated for 10 minutes in the same tube, to surpass the lag observed with the recombinant RPI, and then the mixture was transferred to the spectrophotometer cuvette and the linear part of the progress curve was registered for 15 minutes. The screening of the inhibitors was performed using them at 0, 0.2, 0.5, 1.0 and 2.0 mM for both enzymes, TcRPI-B and TcRPE-1, and for the Ki determination for compound B (FIG. 4) the concentrations used were: 0, 10, 20, 40, 60 and 80 μM, at each R5P concentration used.
# [3] = target: T1, TcRPI-B; assay: TcRPI-B coupled enzyme assay following consumption of NADH at 340 nm; type: biochemical; conditions: for activity at 200 µM: compound 0.2 mM; for activity at 200 µM / activity at 500 µM / activity at 1000 µM / activity at 2000 µM: 2 mM R5P, mean of three determinations ± SD, read-out: percentage of TcRPI-B activity; for activity at 500 µM: compound 0.5 mM; for activity at 1000 µM: compound 1.0 mM; for activity at 2000 µM: compound 2.0 mM
# Experimental: as §1, §2
# [4] = target: T1, TcRPI-B; assay: Trypsin digestion LC/MSMS of TcRPI-B exposed to Compound B; type: binding; conditions: 500 μM compound, 100 μM TcRPI-B, 4° C., 30 minutes
# Experimental: Sample preparation: Purified TcRPI-B was buffer exchanged into 50 mM ammonium bicarbonate (pH 8.0) by using a PD-10 desalting column (GE Life Sciences). The concentration of TcRPI-B was adjusted to 100 μM for the monomer [TcRPI-B: M.W.=19,816 g/mol; ε280=5,120 M^−1 cm^−1] using an Agilent 8453 UV-Visible spectrophotometer. A protein test sample was incubated with compound B (FIG. 2) at a final concentration of 500 μM at 4° C. for 30 minutes and a control sample was prepared that was in the absence of compound B. Samples to be analyzed by LC/MSMS were first quantitated for protein content using a Pierce™ bicinchoninic acid (BCA) Protein Assay Kit and normalized to 50 μg of protein by diluting the appropriate amount of sample in 50 mM ammonium bicarbonate. Normalized samples were digested with trypsin at a 50:1 protein:trypsin concentration. Samples were incubated for 4 hours and then aliquoted for LC-MS analysis.
# Nanoflow LC: Chromatographic separation was achieved using a Thermo Scientific™ EASY-nLC™ 1200 system (Bremen, Germany). Pico-frit columns were purchased from New Objective (Woburn, Mass.) and bomb packed to a length of 20-30 cm with reverse phase ReproSil-Pur® 120 Å C18-AQ 3 μm particles (Dr. Maisch, Germany). […]
Structure (SMILES),Ki [1] [µM],percentage of TcRPE-1 activity ([2]; compound 0.2 mM) [%],percentage of TcRPE-1 activity ([2]; compound 0.5 mM) [%],percentage of TcRPE-1 activity ([2]; compound 1.0 mM) [%],percentage of TcRPE-1 activity ([2]; compound 2.0 mM) [%],activity at 200 µM [3] [%],activity at 500 µM [3] [%],activity at 1000 µM [3] [%],activity at 2000 µM [3] [%],covalent labeling of TcRPI-B peptide V66-R86 [4],"Ki ([3]; Dixon plots, R5P 0.4, 0.8 and 2 mM, inhibitor 0-80 μM, mean of four independent experiments, read-out: inhibition constant (Ki)) [µM]","type of inhibition ([3]; plot of [R5P]/V vs. [B], three lines parallel)"
O=C[C@H](O)[C@H](O)[C@H](O)[C@H](O)COP(=O)(O)O [AlI6P],15000,,,,,,,,,,,
"O=C(NO)[C@H](O)[C@H](O)COP(=O)(O)O [Compound 4PEH, 4-phospho-D-erythronohydroxamic acid]",1200,,,,,,,,,,,
"O=C(Cc1ccccc1)NCCOP(=O)(O)O [Compound A, 2-(2-phenylacetamido)ethyl dihydrogen phosphate]",,100 ± 5,91.9 ± 4.3,87.4 ± 3.1,85.9 ± 4.4,98.1 ± 3.2,97.4 ± 0.5,95.3 ± 4.2,89.2 ± 3.5,,,
"O=C(CI)NCCOP(=O)(O)O [Compound B, 2-(2-iodoacetamido)ethyl dihydrogen phosphate]",,89.5 ± 4,89.5 ± 4,103 ± 5,57.4 ± 0.4,25.2 ± 3.5,7.5 ± 3.9,1.2 ± 0.3,0,bound irreversibly to C69,5.5 ± 0.1,competitive inhibition
"O=C(CBr)NCCOP(=O)(O)O [Compound C, 2-(2-bromoacetamido)ethyl dihydrogen phosphate]",,91.1 ± 5.1,85.8 ± 4.4,77.3 ± 7.5,65.1 ± 5.2,78.5 ± 4.8,62.7 ± 5.9,41.3 ± 2.7,18.3 ± 2.5,,,
"O=C(CCl)NCCOP(=O)(O)O [Compound D, 2-(2-chloroacetamido)ethyl dihydrogen phosphate]",,100 ± 6,103 ± 5,95.5 ± 7.9,82.6 ± 12,107 ± 9,105 ± 7,98.5 ± 2.1,83.7 ± 8.9,,,
"O=C(CF)NCCOP(=O)(O)O [Compound E, 2-(2-fluoroacetamido)ethyl dihydrogen phosphate]",,111 ± 10,103 ± 7,93.2 ± 11.1,83.5 ± 9.7,,,,,,,
